Results: patent EP3521435A1, “A HIGH STRINGENCY SELECTION SYSTEM FOR PROTEIN EXPRESSION IN PROLINE-AUXOTROPHIC CELLS” (Bayer AG, priority 2018, dated 2019)

Assays:
CHO-K1 cells [1] = assay: Cell viability post-transfection of transfected cell populations under selection conditions; assay type: cell-based, Chinese hamster; details: for recovery of cultures: 0.8 mM DHP; for Viability on day 15 post-transfection: pJF2460
Method: (§1) To efficiently test the impact of different procedures on improving selection stringency, experimental testing in stable cell populations was performed. As test molecules, enhanced green fluorescent protein (GFP) as well as a human IgG1 were chosen. CHO-K1 cells adapted to growth in suspension in defined medium were obtained from SAFC and cultivated in EX-CELL CD CHO Fusion medium (SAFC 14365C). Custom-made EX-CELL CD CHO Fusion medium without L-Proline (Pro) and without L-Ornithine (Orn) ("proline-free medium") was obtained from SAFC. The expression vector system was based on modified versions of "CET 1019 AS-puro-SceI" and "CET 1019 AD-puro-SceI" for GFP and human IgG1, respectively, from Merck-Millipore, containing the Puromycin selection marker (Puromycin N-acetyl-transferase) known to exert a high selection stringency. To minimize variations in cell populations derived from using different transfections or different vectors, the first series of experiments were conducted using vectors into which a P5CS expression cassette was cloned upstream of a UCOE element, in addition to the Puromycin selection marker present downstream of a gene of interest. This way, it was possible to pool different transfections using the same vector to obtain a common starting point, and split the mixture according to different selection conditions, minimizing any variations that are not due to selection conditions themselves. Expression of long and short isoform of murine P5CS (Protein: Delta-1-pyrroline-5-carboxylate synthase; Gene: Aldh18a1; UniProtKB accession number: Q9Z110-1 & Q9Z110-2) was driven by a SV40 promoter. A SV40 polyadenylation sequence was used at the 3' end of the gene. More details can be found in Table 1. Typically, CHO cells were cultivated in EX-CELL CD CHO Fusion medium containing 6 mM GlutaMAX (Thermo Fisher, 35050-38) ("CD-Fusion medium") at 37 °C with 5% CO2. Cells were grown to logarithmic phase under shaking conditions for transfections. 1e7 cells/cuvette were transfected using nucleofection (Amaxa Nucleofector II, following the manufacturer's recommendations) with 5 µg of linearized DNA. After transfection, cells were taken up in 1 ml medium and transferred into 1 well of a 6 well microtiter plate (MTP) already containing 1 ml medium. The cells were incubated for 24 h without shaking, after which 9 ml medium were added and cells were washed (either in standard or proline-free medium). Multiple transfections were pooled, if applicable. Cells were adjusted to 2e5 viable cells/ml and 10 ml were transferred to T-25 flasks. Reference cell populations were selected using 10 µg/ml Puromycin in CD-Fusion medium. For P5CS-based selection, EX-CELL CD CHO Fusion medium (custom-made, SAFC) containing 6 mM GlutaMAX without proline and without ornithine was used ("proline-free" or "CD-Fusion w/o Pro" medium), with or without additional selection pressure.
(§2) Cell viability of the different populations was monitored over time. As soon as cell populations appeared to recover from selection pressure, cells were transferred to Shake Flask or TubeSpins for expansion in suspension under shaking conditions. Subsequently, stable cell populations transfected with IgG were seeded at 2e5 viable cells/ml for batch fermentation without selection pressure (i.e. standard CD-Fusion medium containing proline and no other selective agents). The cells were cultivated for 5-10 days, viable cell densities and productivity were monitored over time. IgG titers were determined using Poros A-HPLC method. Typically, final batch titers were recorded at a time point at which majority of cultures had around 70% viability. Stable cell populations transfected with GFP vector were subjected to analysis by flow cytometry using Guava easyCyte 8HT Benchtop Flow Cytometer (Millipore). 250 µl of cell culture were transferred to 96 MTP and washed with PBS. Dead cells were excluded from analysis using propidium iodide (PI). […]

CHO-K1 cells [2] = assay: Batch fermentation in shake flasks of human IgG1 expressing stable cell populations (Poros A-HPLC titer, viable cell density, viability); assay type: cell-based, Chinese hamster; details: pJF1576
Method: as §1, §2

[3] = pJF1555, CD-Fusion w/o Pro + 0.2 mM DHP
[4] = pJF1576, CD-Fusion w/o Pro + 0.2 mM DHP
[5] = pJF1576, CD-Fusion w/o Pro + 0.4 mM DHP
[6] = Day 2 after inoculation, selected in CD-Fusion w/o Pro + 0.05 mM DHP, non-selecting conditions
[7] = Day 2 after inoculation, selected in CD-Fusion w/o Pro + 0.1 mM DHP, non-selecting conditions

## O=C(O)[C@@H]1C=CCN1 [DHP, 3,4-Dehydro-L-Proline]
CHO-K1 cells [1]; pJF1555, even after prolonged incubations
  recovery of cultures: did not recover
CHO-K1 cells [1]; pJF1576
  recovery of cultures: did not recover
CHO-K1 cells [1]; pJF1555, CD-Fusion w/o Pro + 0.05 mM DHP
  Viability on day 12 post-transfection: 83%
CHO-K1 cells [1]; pJF1555, CD-Fusion w/o Pro + 0.1 mM DHP
  Viability on day 12 post-transfection: 53%
CHO-K1 cells [1]; [3]
  Viability on day 12 post-transfection: 40%
  Viability on day 19 post-transfection: 27%
CHO-K1 cells [1]; pJF1555, CD-Fusion w/o Pro + 0.4 mM DHP
  Viability on day 12 post-transfection: 20%
CHO-K1 cells [1]; pJF1555, CD-Fusion w/o Pro + 0.8 mM DHP
  Viability on day 12 post-transfection: 13%
CHO-K1 cells [1]; pJF1555, CD-Fusion w/o Pro + 1 mM DHP
  Viability on day 19 post-transfection: 7%
CHO-K1 cells [1]; pJF1555, CD-Fusion w/o Pro + 5 mM DHP
  Viability on day 19 post-transfection: 6%
CHO-K1 cells [1]; pJF1555, CD-Fusion w/o Pro + 10 mM DHP
  Viability on day 19 post-transfection: 7%
CHO-K1 cells [1]; pJF1555, proline-free medium, even after extension of cultivation
  DHP concentration at which cultures did not recover: ≥ 1 mM
CHO-K1 cells [1]; pJF1576, CD-Fusion w/o Pro + 0.05 mM DHP
  Viability on day 12 post-transfection: 91%
CHO-K1 cells [1]; pJF1576, CD-Fusion w/o Pro + 0.1 mM DHP
  Viability on day 12 post-transfection: 74%
CHO-K1 cells [1]; [4]
  Viability on day 12 post-transfection: 49%
  Viability on day 21 post-transfection: 87.4%
CHO-K1 cells [1]; [5]
  Viability on day 12 post-transfection: 28%
  Viability on day 21 post-transfection: 65.3%
CHO-K1 cells [1]; pJF1576, CD-Fusion w/o Pro + 0.5 mM DHP
  Viability on day 21 post-transfection: 42.8%
CHO-K1 cells [1]; pJF1576, CD-Fusion w/o Pro + 0.6 mM DHP
  Viability on day 21 post-transfection: 35.7%
CHO-K1 cells [1]; pJF1576, CD-Fusion w/o Pro + 0.8 mM DHP
  Viability on day 12 post-transfection: 23%
CHO-K1 cells [1]; pJF1969, CD-Fusion w/o Pro + 0.2 mM DHP
  Viability on day 21 post-transfection: 26.5%
CHO-K1 cells [1]; pJF1969, CD-Fusion w/o Pro + 0.4 mM DHP
  Viability on day 21 post-transfection: 22.9%
CHO-K1 cells [1]; pJF1969, CD-Fusion w/o Pro + 0.5 mM DHP
  Viability on day 21 post-transfection: 23.3%
CHO-K1 cells [1]; pJF1969, CD-Fusion w/o Pro + 0.6 mM DHP
  Viability on day 21 post-transfection: 25.9%
CHO-K1 cells [1]; pJF1970, CD-Fusion w/o Pro + 0.2 mM DHP
  Viability on day 21 post-transfection: 18.2%
CHO-K1 cells [1]; pJF1970, CD-Fusion w/o Pro + 0.4 mM DHP
  Viability on day 21 post-transfection: 21.4%
CHO-K1 cells [1]; pJF1970, CD-Fusion w/o Pro + 0.5 mM DHP
  Viability on day 21 post-transfection: 18.3%
CHO-K1 cells [1]; pJF1970, CD-Fusion w/o Pro + 0.6 mM DHP
  Viability on day 21 post-transfection: 18.2%
CHO-K1 cells [1]; pJF2055, CD-Fusion w/o Pro + 0.02 mM DHP
  Viability on day 22 post-transfection: 99.5%
CHO-K1 cells [1]; pJF2055, CD-Fusion w/o Pro + 0.03 mM DHP
  Viability on day 22 post-transfection: 99.2%
CHO-K1 cells [1]; pJF2055, CD-Fusion w/o Pro + 0.04 mM DHP
  Viability on day 22 post-transfection: 99.2%
CHO-K1 cells [1]; pJF2055, CD-Fusion w/o Pro + 0.06 mM DHP
  Viability on day 22 post-transfection: 83.3%
CHO-K1 cells [1]; pJF2055, CD-Fusion w/o Pro + 0.07 mM DHP
  Viability on day 22 post-transfection: 65.3%
CHO-K1 cells [1]; pJF2055, CD-Fusion w/o Pro + 0.08 mM DHP
  Viability on day 22 post-transfection: 36.3%
CHO-K1 cells [1]; pJF2303, CD-Fusion w/o Pro + 0.02 mM DHP
  Viability on day 22 post-transfection: 99.3%
CHO-K1 cells [1]; pJF2303, CD-Fusion w/o Pro + 0.04 mM DHP
  Viability on day 22 post-transfection: 99.6%
CHO-K1 cells [1]; pJF2303, CD-Fusion w/o Pro + 0.06 mM DHP
  Viability on day 22 post-transfection: 99.4%
CHO-K1 cells [1]; pJF2303, CD-Fusion w/o Pro + 0.08 mM DHP
  Viability on day 22 post-transfection: 99.2%
CHO-K1 cells [1]; pJF2303, CD-Fusion w/o Pro + 0.2 mM DHP
  Viability on day 22 post-transfection: 98.4%
CHO-K1 cells [1]; pJF2303, CD-Fusion w/o Pro + 0.3 mM DHP
  Viability on day 22 post-transfection: 98.2%
CHO-K1 cells [1]; pJF2303, CD-Fusion w/o Pro + 0.4 mM DHP
  Viability on day 22 post-transfection: 98.5%
CHO-K1 cells [1]; pJF2303, CD-Fusion w/o Pro + 0.5 mM DHP
  Viability on day 22 post-transfection: 99.1%
CHO-K1 cells [1]; CD-Fusion w/o Pro + 0.01 mM DHP
  Viability on day 15 post-transfection: 73.2%
CHO-K1 cells [1]; CD-Fusion w/o Pro + 0.03 mM DHP
  Viability on day 15 post-transfection: 44.1%
CHO-K1 cells [1]; CD-Fusion w/o Pro + 0.04 mM DHP
  Viability on day 15 post-transfection: 30.6%
CHO-K1 cells [1]; CD-Fusion w/o Pro + 0.05 mM DHP
  Viability on day 15 post-transfection: 22.8%
CHO-K1 cells [2]; 0.2 mM or 0.4 mM DHP as additional selection additives, human IgG1, non-selecting batch, #1 - #3 vs #6 & #7
  titer improvements: 2-3 fold
CHO-K1 cells [2]; DHP as additional selection agent in initial selections, human IgG1, batch under selective conditions
  titer improvements as compared to Puromycin-based selections: 2-3 fold
CHO-K1 cells [2]; Day 0 after inoculation, selected in CD-Fusion w/o Pro + 0.05 mM DHP, non-selecting conditions
  Viability profile: 99.4%
CHO-K1 cells [2]; Day 0 after inoculation, selected in CD-Fusion w/o Pro + 0.05 mM DHP, selective conditions
  Viability profile: 98.4%
CHO-K1 cells [2]; Day 0 after inoculation, selected in CD-Fusion w/o Pro + 0.1 mM DHP, non-selecting conditions
  Viability profile: 99.0%
CHO-K1 cells [2]; Day 0 after inoculation, selected in CD-Fusion w/o Pro + 0.1 mM DHP, selective conditions
  Viability profile: 97.5%
CHO-K1 cells [2]; Day 0 after inoculation, selected in CD-Fusion w/o Pro + 0.2 mM DHP, non-selecting conditions
  Viability profile: 98.6%
CHO-K1 cells [2]; Day 0 after inoculation, selected in CD-Fusion w/o Pro + 0.2 mM DHP, selective conditions
  Viability profile: 98.2%
CHO-K1 cells [2]; Day 0 after inoculation, selected in CD-Fusion w/o Pro + 0.4 mM DHP, non-selecting conditions
  Viability profile: 96.3%
CHO-K1 cells [2]; Day 0 after inoculation, selected in CD-Fusion w/o Pro + 0.4 mM DHP, selective conditions
  Viability profile: 99.7%
CHO-K1 cells [2]; Day 2 after inoculation, human IgG1, selected in CD-Fusion w/o Pro + 0.05 mM DHP, non-selecting conditions
  Productivity profile: 9.8 mg/L
CHO-K1 cells [2]; Day 2 after inoculation, human IgG1, selected in CD-Fusion w/o Pro + 0.05 mM DHP, selective conditions
  Productivity profile: 47.1 mg/L
CHO-K1 cells [2]; Day 2 after inoculation, human IgG1, selected in CD-Fusion w/o Pro + 0.1 mM DHP, non-selecting conditions
  Productivity profile: 11.0 mg/L
CHO-K1 cells [2]; Day 2 after inoculation, human IgG1, selected in CD-Fusion w/o Pro + 0.1 mM DHP, selective conditions
  Productivity profile: 37.5 mg/L
CHO-K1 cells [2]; Day 2 after inoculation, human IgG1, selected in CD-Fusion w/o Pro + 0.2 mM DHP, non-selecting conditions
  Productivity profile: 11.3 mg/L
CHO-K1 cells [2]; Day 2 after inoculation, human IgG1, selected in CD-Fusion w/o Pro + 0.2 mM DHP, selective conditions
  Productivity profile: 34.4 mg/L
CHO-K1 cells [2]; Day 2 after inoculation, human IgG1, selected in CD-Fusion w/o Pro + 0.4 mM DHP, non-selecting conditions
  Productivity profile: 11.3 mg/L
CHO-K1 cells [2]; Day 2 after inoculation, human IgG1, selected in CD-Fusion w/o Pro + 0.4 mM DHP, selective conditions
  Productivity profile: 39.4 mg/L
CHO-K1 cells [2]; [6]
  Viability profile: 98.9%
  Viable cell density profile: 6,1E+05 VCD/ml
CHO-K1 cells [2]; [7]
  Viability profile: 99.3%
  Viable cell density profile: 7,9E+05 VCD/ml
CHO-K1 cells [2]; Day 2 after inoculation, selected in CD-Fusion w/o Pro + 0.2 mM DHP, non-selecting conditions
  Viability profile: 99.2%
